Measurements reported in the supplement of paper PMC10307832.

Legend:
Assay in all cases: relative viability (nuclei count vs DMSO), 5 days (fraction); higher = more cells survive
Crizotinib + Pemetrexed = compound: C[C@@H](Oc1cc(-c2cnn(C3CCNCC3)c2)cnc1N)c1c(Cl)ccc(F)c1Cl [Crizotinib] + Nc1nc2[nH]cc(CCc3ccc(C(=O)N[C@@H](CCC(=O)O)C(=O)O)cc3)c2c(=O)[nH]1 [Pemetrexed] (partner 0.2 µM)
Summary of the method: (§1)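 Values are medians from duplicate plates. Each reflects relative viability, defined as the nuclei count of treated wells over that of vehicle wells. Lung cancer cell lines in 1536-well plates were pin-tool dosed one day after seeding with one drug alone or with a fixed anchor-drug dose plus five library-drug doses (not always all listed) in √10 steps, then fixed, stained and imaged at 4× after 5 days.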

Crizotinib + Lapatinib = compound: C[C@@H](Oc1cc(-c2cnn(C3CCNCC3)c2)cnc1N)c1c(Cl)ccc(F)c1Cl [Crizotinib] + CS(=O)(=O)CCNCc1ccc(-c2ccc3ncnc(Nc4ccc(OCc5cccc(F)c5)c(Cl)c4)c3c2)o1 [Lapatinib] (partner 2 µM)
Summary of the method: as §1

Crizotinib + Luminespib = compound: C[C@@H](Oc1cc(-c2cnn(C3CCNCC3)c2)cnc1N)c1c(Cl)ccc(F)c1Cl [Crizotinib] + CCNC(=O)c1noc(-c2cc(C(C)C)c(O)cc2O)c1-c1ccc(CN2CCOCC2)cc1 [Luminespib] (partner 0.01 µM)
Summary of the method: as §1

Crizotinib + Linsitinib = compound: C[C@@H](Oc1cc(-c2cnn(C3CCNCC3)c2)cnc1N)c1c(Cl)ccc(F)c1Cl [Crizotinib] + C[C@]1(O)C[C@@H](c2nc(-c3ccc4ccc(-c5ccccc5)nc4c3)c3c(N)nccn32)C1 [Linsitinib] (partner 1 µM)
Summary of the method: as §1

## NCI-H1355
Crizotinib + Pemetrexed; first compound 0.01 µM
  relative viability: 0.998
Crizotinib + Pemetrexed; first compound 0.03162 µM
  relative viability: 0.928
Crizotinib + Pemetrexed; first compound 0.1 µM
  relative viability: 1.08
Crizotinib + Pemetrexed; first compound 0.3162 µM
  relative viability: 0.976
Crizotinib + Pemetrexed; first compound 1 µM
  relative viability: 1.07
Crizotinib + Lapatinib; first compound 0.03162 µM
  relative viability: 1.04
Crizotinib + Lapatinib; first compound 0.1 µM
  relative viability: 1.07
Crizotinib + Lapatinib; first compound 0.3162 µM
  relative viability: 0.863
Crizotinib + Lapatinib; first compound 1 µM
  relative viability: 0.986
Crizotinib + Luminespib; first compound 0.01 µM
  relative viability: 0.709
Crizotinib + Luminespib; first compound 0.03162 µM
  relative viability: 0.749
Crizotinib + Luminespib; first compound 0.1 µM
  relative viability: 0.644
Crizotinib + Luminespib; first compound 0.3162 µM
  relative viability: 0.641
Crizotinib + Luminespib; first compound 1 µM
  relative viability: 0.783
Crizotinib + Linsitinib; first compound 0.01 µM
  relative viability: 0.869
Crizotinib + Linsitinib; first compound 0.03162 µM
  relative viability: 0.82
Crizotinib + Linsitinib; first compound 0.1 µM
  relative viability: 0.811
Crizotinib + Linsitinib; first compound 0.3162 µM
  relative viability: 0.799
Crizotinib + Linsitinib; first compound 1 µM
  relative viability: 0.867

## NCI-H1395
Crizotinib + Pemetrexed; first compound 0.01 µM
  relative viability: 0.91
Crizotinib + Pemetrexed; first compound 0.1 µM
  relative viability: 0.888
Crizotinib + Pemetrexed; first compound 0.3162 µM
  relative viability: 0.731
Crizotinib + Pemetrexed; first compound 1 µM
  relative viability: 0.88
Crizotinib + Lapatinib; first compound 0.01 µM
  relative viability: 0.971
Crizotinib + Lapatinib; first compound 0.03162 µM
  relative viability: 1.14
Crizotinib + Lapatinib; first compound 0.1 µM
  relative viability: 1
Crizotinib + Lapatinib; first compound 0.3162 µM
  relative viability: 0.922
Crizotinib + Lapatinib; first compound 1 µM
  relative viability: 0.956
Crizotinib + Luminespib; first compound 0.01 µM
  relative viability: 0.632
Crizotinib + Luminespib; first compound 0.03162 µM
  relative viability: 0.621
Crizotinib + Luminespib; first compound 0.1 µM
  relative viability: 0.692
Crizotinib + Luminespib; first compound 0.3162 µM
  relative viability: 0.759
Crizotinib + Luminespib; first compound 1 µM
  relative viability: 0.627
Crizotinib + Linsitinib; first compound 0.01 µM
  relative viability: 1.07
Crizotinib + Linsitinib; first compound 0.03162 µM
  relative viability: 1.17
Crizotinib + Linsitinib; first compound 0.1 µM
  relative viability: 0.944
Crizotinib + Linsitinib; first compound 0.3162 µM
  relative viability: 1.01
Crizotinib + Linsitinib; first compound 1 µM
  relative viability: 1.03

## NCI-H1437
Crizotinib + Pemetrexed; first compound 0.01 µM
  relative viability: 0.338
Crizotinib + Pemetrexed; first compound 0.03162 µM
  relative viability: 0.3
Crizotinib + Pemetrexed; first compound 0.1 µM
  relative viability: 0.319
Crizotinib + Pemetrexed; first compound 0.3162 µM
  relative viability: 0.314
Crizotinib + Pemetrexed; first compound 1 µM
  relative viability: 0.325
Crizotinib + Lapatinib; first compound 0.01 µM
  relative viability: 0.768
Crizotinib + Lapatinib; first compound 0.03162 µM
  relative viability: 0.839
Crizotinib + Lapatinib; first compound 0.1 µM
  relative viability: 0.816
Crizotinib + Lapatinib; first compound 0.3162 µM
  relative viability: 0.711
Crizotinib + Lapatinib; first compound 1 µM
  relative viability: 0.928
Crizotinib + Luminespib; first compound 0.01 µM
  relative viability: 1.06
Crizotinib + Luminespib; first compound 0.03162 µM
  relative viability: 1.15
Crizotinib + Luminespib; first compound 0.1 µM
  relative viability: 1.14
Crizotinib + Luminespib; first compound 0.3162 µM
  relative viability: 1.17
Crizotinib + Luminespib; first compound 1 µM
  relative viability: 1.22
Crizotinib + Linsitinib; first compound 0.01 µM
  relative viability: 0.996
Crizotinib + Linsitinib; first compound 0.1 µM
  relative viability: 1.03
Crizotinib + Linsitinib; first compound 0.3162 µM
  relative viability: 0.996
Crizotinib + Linsitinib; first compound 1 µM
  relative viability: 1.04

## NCI-H1563
Crizotinib + Pemetrexed; first compound 0.01 µM
  relative viability: 0.759
Crizotinib + Pemetrexed; first compound 0.03162 µM
  relative viability: 0.833
Crizotinib + Pemetrexed; first compound 0.1 µM
  relative viability: 0.757
Crizotinib + Pemetrexed; first compound 0.3162 µM
  relative viability: 0.735
Crizotinib + Pemetrexed; first compound 1 µM
  relative viability: 0.875
Crizotinib + Lapatinib; first compound 0.01 µM
  relative viability: 0.88
Crizotinib + Lapatinib; first compound 0.03162 µM
  relative viability: 0.962
Crizotinib + Lapatinib; first compound 0.1 µM
  relative viability: 0.936
Crizotinib + Lapatinib; first compound 0.3162 µM
  relative viability: 0.753
Crizotinib + Lapatinib; first compound 1 µM
  relative viability: 0.789
Crizotinib + Luminespib; first compound 0.01 µM
  relative viability: 0.528
Crizotinib + Luminespib; first compound 0.03162 µM
  relative viability: 0.505
Crizotinib + Luminespib; first compound 0.1 µM
  relative viability: 0.49
Crizotinib + Luminespib; first compound 0.3162 µM
  relative viability: 0.566
Crizotinib + Luminespib; first compound 1 µM
  relative viability: 0.534
Crizotinib + Linsitinib; first compound 0.01 µM
  relative viability: 1.18
Crizotinib + Linsitinib; first compound 0.03162 µM
  relative viability: 1.12
Crizotinib + Linsitinib; first compound 0.1 µM
  relative viability: 1.22
Crizotinib + Linsitinib; first compound 0.3162 µM
  relative viability: 1.3
Crizotinib + Linsitinib; first compound 1 µM
  relative viability: 1.27

## NCI-H1651
Crizotinib + Pemetrexed; first compound 0.01 µM
  relative viability: 0.545
Crizotinib + Pemetrexed; first compound 0.03162 µM
  relative viability: 0.369
Crizotinib + Pemetrexed; first compound 0.1 µM
  relative viability: 0.65
Crizotinib + Pemetrexed; first compound 0.3162 µM
  relative viability: 0.378
Crizotinib + Pemetrexed; first compound 1 µM
  relative viability: 0.535
Crizotinib + Lapatinib; first compound 0.01 µM
  relative viability: 0.642
Crizotinib + Lapatinib; first compound 0.03162 µM
  relative viability: 0.782
Crizotinib + Lapatinib; first compound 0.1 µM
  relative viability: 0.722
Crizotinib + Lapatinib; first compound 0.3162 µM
  relative viability: 0.893
Crizotinib + Lapatinib; first compound 1 µM
  relative viability: 0.892
Crizotinib + Luminespib; first compound 0.01 µM
  relative viability: 0.793
Crizotinib + Luminespib; first compound 0.03162 µM
  relative viability: 0.74
Crizotinib + Luminespib; first compound 0.1 µM
  relative viability: 0.831
Crizotinib + Luminespib; first compound 0.3162 µM
  relative viability: 1.09
Crizotinib + Luminespib; first compound 1 µM
  relative viability: 0.942
Crizotinib + Linsitinib; first compound 0.01 µM
  relative viability: 1.01
Crizotinib + Linsitinib; first compound 0.03162 µM
  relative viability: 1.01
Crizotinib + Linsitinib; first compound 0.1 µM
  relative viability: 0.955
Crizotinib + Linsitinib; first compound 0.3162 µM
  relative viability: 1.06
Crizotinib + Linsitinib; first compound 1 µM
  relative viability: 1.07

## NCI-H1666
Crizotinib + Pemetrexed; first compound 0.01 µM
  relative viability: 0.826
Crizotinib + Pemetrexed; first compound 0.03162 µM
  relative viability: 0.814
Crizotinib + Pemetrexed; first compound 0.1 µM
  relative viability: 0.87
Crizotinib + Pemetrexed; first compound 0.3162 µM
  relative viability: 0.808
Crizotinib + Pemetrexed; first compound 1 µM
  relative viability: 0.82
Crizotinib + Lapatinib; first compound 0.01 µM
  relative viability: 0.618
Crizotinib + Lapatinib; first compound 0.03162 µM
  relative viability: 0.678
Crizotinib + Lapatinib; first compound 0.1 µM
  relative viability: 0.587
Crizotinib + Lapatinib; first compound 0.3162 µM
  relative viability: 0.657
Crizotinib + Lapatinib; first compound 1 µM
  relative viability: 0.682
Crizotinib + Luminespib; first compound 0.01 µM
  relative viability: 0.864
Crizotinib + Luminespib; first compound 0.03162 µM
  relative viability: 1
Crizotinib + Luminespib; first compound 0.1 µM
  relative viability: 1.09
Crizotinib + Luminespib; first compound 0.3162 µM
  relative viability: 0.991
Crizotinib + Luminespib; first compound 1 µM
  relative viability: 0.999
Crizotinib + Linsitinib; first compound 0.01 µM
  relative viability: 0.825
Crizotinib + Linsitinib; first compound 0.03162 µM
  relative viability: 0.877
Crizotinib + Linsitinib; first compound 0.1 µM
  relative viability: 0.774
Crizotinib + Linsitinib; first compound 0.3162 µM
  relative viability: 0.871
Crizotinib + Linsitinib; first compound 1 µM
  relative viability: 0.665

## NCI-H1734
Crizotinib + Pemetrexed; first compound 0.01 µM
  relative viability: 0.411
Crizotinib + Pemetrexed; first compound 0.03162 µM
  relative viability: 0.442
Crizotinib + Pemetrexed; first compound 0.1 µM
  relative viability: 0.403
Crizotinib + Pemetrexed; first compound 1 µM
  relative viability: 0.395
Crizotinib + Lapatinib; first compound 0.01 µM
  relative viability: 1.03
Crizotinib + Lapatinib; first compound 0.03162 µM
  relative viability: 1.05
Crizotinib + Lapatinib; first compound 0.1 µM
  relative viability: 1
Crizotinib + Lapatinib; first compound 1 µM
  relative viability: 1.04
Crizotinib + Luminespib; first compound 0.01 µM
  relative viability: 0.213
Crizotinib + Luminespib; first compound 0.03162 µM
  relative viability: 0.182
Crizotinib + Luminespib; first compound 0.1 µM
  relative viability: 0.209
Crizotinib + Luminespib; first compound 1 µM
  relative viability: 0.193
Crizotinib + Linsitinib; first compound 0.01 µM
  relative viability: 0.888
Crizotinib + Linsitinib; first compound 0.03162 µM
  relative viability: 0.843
Crizotinib + Linsitinib; first compound 0.1 µM
  relative viability: 0.851
Crizotinib + Linsitinib; first compound 1 µM
  relative viability: 0.82

## NCI-H1755
Crizotinib + Pemetrexed; first compound 0.01 µM
  relative viability: 0.373
Crizotinib + Pemetrexed; first compound 0.03162 µM
  relative viability: 0.44
Crizotinib + Pemetrexed; first compound 0.1 µM
  relative viability: 0.382
Crizotinib + Pemetrexed; first compound 0.3162 µM
  relative viability: 0.445
Crizotinib + Pemetrexed; first compound 1 µM
  relative viability: 0.408
Crizotinib + Lapatinib; first compound 0.01 µM
  relative viability: 1
Crizotinib + Lapatinib; first compound 0.03162 µM
  relative viability: 1.04
Crizotinib + Lapatinib; first compound 0.1 µM
  relative viability: 1.07
Crizotinib + Lapatinib; first compound 0.3162 µM
  relative viability: 0.938
Crizotinib + Lapatinib; first compound 1 µM
  relative viability: 1.03
Crizotinib + Luminespib; first compound 0.01 µM
  relative viability: 0.428
Crizotinib + Luminespib; first compound 0.03162 µM
  relative viability: 0.482
Crizotinib + Luminespib; first compound 0.1 µM
  relative viability: 0.445
Crizotinib + Luminespib; first compound 0.3162 µM
  relative viability: 0.554
Crizotinib + Luminespib; first compound 1 µM
  relative viability: 0.266
Crizotinib + Linsitinib; first compound 0.01 µM
  relative viability: 0.872
Crizotinib + Linsitinib; first compound 0.1 µM
  relative viability: 1.07
Crizotinib + Linsitinib; first compound 0.3162 µM
  relative viability: 0.964
Crizotinib + Linsitinib; first compound 1 µM
  relative viability: 0.978

## NCI-H1792
Crizotinib + Pemetrexed; first compound 0.01 µM
  relative viability: 0.829
Crizotinib + Pemetrexed; first compound 0.03162 µM
  relative viability: 1.06
Crizotinib + Pemetrexed; first compound 0.1 µM
  relative viability: 0.847
Crizotinib + Pemetrexed; first compound 1 µM
  relative viability: 0.871
Crizotinib + Lapatinib; first compound 0.01 µM
  relative viability: 0.827
Crizotinib + Lapatinib; first compound 0.03162 µM
  relative viability: 0.918
Crizotinib + Lapatinib; first compound 0.1 µM
  relative viability: 0.958
Crizotinib + Lapatinib; first compound 0.3162 µM
  relative viability: 0.78
Crizotinib + Lapatinib; first compound 1 µM
  relative viability: 0.842
Crizotinib + Luminespib; first compound 0.01 µM
  relative viability: 0.46
Crizotinib + Luminespib; first compound 0.03162 µM
  relative viability: 0.39
Crizotinib + Luminespib; first compound 0.1 µM
  relative viability: 0.529
Crizotinib + Luminespib; first compound 1 µM
  relative viability: 0.553
Crizotinib + Linsitinib; first compound 0.01 µM
  relative viability: 0.519
Crizotinib + Linsitinib; first compound 0.03162 µM
  relative viability: 0.558
Crizotinib + Linsitinib; first compound 0.1 µM
  relative viability: 0.586
Crizotinib + Linsitinib; first compound 0.3162 µM
  relative viability: 0.473
Crizotinib + Linsitinib; first compound 1 µM
  relative viability: 0.559
